Reference: DBAASP
≈ marks a conversion by molar mass, not a printed value. Where “and” joins values, the source holds several entries; their conditions need not be identical. Identical values can stand only once.

Tests used:
Assay in all cases: ≥ marks a high value that may be exact or a test limit, other limits are often not marked, values filed in µg/mL are converted to µM
[1] = system: Pseudomonas aeruginosa 4007
[2] = system: Escherichia coli CCARM 1238
[3] = system: Trichosporon beigelii KCTC 7707
[4] = system: Escherichia coli CCARM 1229
[5] = system: Staphylococcus aureus CCARM 3518
[6] = system: Candida albicans KCTC 7270
[7] = system: Staphylococcus aureus CCARM 3090
[8] = system: Pseudomonas aeruginosa 4891
[9] = system: Streptococcus mutans GS-5
[10] = system: Streptococcus sanguinis ATCC 49295
[11] = system: Streptococcus gordonii ATCC 10558
[12] = system: Streptococcus mutans UA159
Vibrio alginolyticus = system: Vibrio alginolyticus
Aeromonas hydrophila = system: Aeromonas hydrophila
Escherichia coli = system: Escherichia coli
Vibrio fluvialis = system: Vibrio fluvialis
Vibrio parahaemolyticus = system: Vibrio parahaemolyticus
Staphylococcus aureus = system: Staphylococcus aureus
Streptococcus pyogenes = system: Streptococcus pyogenes
[13] = system: Acinetobacter baumannii KCTC 2508
[14] = system: Klebsiella pneumoniae KCTC 2208
[15] = system: Pseudomonas aeruginosa ATCC 27853
Fusarium solani = system: Fusarium solani
[16] = system: Pectobacterium carotovorum
[17] = system: Pseudomonas syringae pv. tabaci
Trichoderma asperellum = system: Trichoderma asperellum
[18] = system: Bacillus subtilis ATCC 23857
[19] = system: Bacillus cereus ATCC 14579
[20] = system: Xanthomonas campestris pv. citri
[21] = system: Fusarium oxysporum f.sp. vasinfectum
Ramulariopsis gossypii = system: Ramulariopsis gossypii
Rhizoctonia solani = system: Rhizoctonia solani
[22] = system: Candida albicans ATCC 90028
[23] = system: Escherichia coli ATCC 25922
Fusarium oxysporum = system: Fusarium oxysporum
[24] = system: Cryptococcus neoformans ATCC 28957
[25] = system: Staphylococcus aureus ATCC 25923
[26] = system: Pseudomonas aeruginosa 1570
[27] = system: Pseudomonas aeruginosa 8600
[28] = system: Pseudomonas aeruginosa 5167
[29] = system: Candida albicans NCTC 3179
[30] = system: Staphylococcus aureus MTCC 96
[31] = system: Klebsiella pneumoniae MTCC 443
[32] = system: Pseudomonas aeruginosa MTCC 2488

## CC[C@H](C)[C@H](NC(=O)[C@H](CCCCN)NC(=O)[C@H](CCCCN)NC(=O)[C@@H](NC(=O)[C@H](C)NC(=O)[C@H](CCC(=O)O)NC(=O)[C@H](Cc1cnc[nH]1)NC(=O)[C@@H](NC(=O)[C@H](CCCCN)NC(=O)[C@H](CCC(N)=O)NC(=O)[C@H](Cc1ccccc1)NC(=O)[C@@H](NC(=O)[C@H](CCCCN)NC(=O)[C@H](CCCCN)NC(=O)[C@H](CC(C)C)NC(=O)[C@H](C)NC(=O)[C@H](CC(N)=O)NC(=O)[C@@H](N)CC(C)C)C(C)C)[C@@H](C)CC)[C@@H](C)CC)C(N)=O [LNALKKVFQKIHEAIKKI]
[1]
  MIC: 4 µM (≈ 8.48 µg/mL)
[2]
  MIC: 2 µM (≈ 4.24 µg/mL)
[3]
  MIC: 16 µM (≈ 33.9 µg/mL)
[4]
  MIC: 2 µM (≈ 4.24 µg/mL)
[5]
  MIC: 4 µM (≈ 8.48 µg/mL)
[6]
  MIC: 16 µM (≈ 33.9 µg/mL)
[7]
  MIC: 4 µM (≈ 8.48 µg/mL)
[8]
  MIC: 4 µM (≈ 8.48 µg/mL)

## CC(C)C[C@H](NC(=O)[C@H](CCCN=C(N)N)NC(=O)[C@H](Cc1ccccc1)NC(=O)[C@H](Cc1ccccc1)NC(=O)[C@@H](NC(=O)[C@H](CO)NC(=O)[C@@H](N)CC(C)C)[C@@H](C)O)C(=O)N[C@@H](Cc1ccccc1)C(=O)N[C@@H](CC(N)=O)C(=O)O [LSTFFRLFN]
[9]
  MIC: ≥ 224 µM
[10]
  MIC: ≥ 224 µM
[11]
  MIC: ≥ 224 µM
[12]
  MIC: ≥ 224 µM

## CC(C)C[C@H](NC(=O)[C@H](CCCCN)NC(=O)[C@H](CCC(N)=O)NC(=O)[C@@H](NC(=O)[C@H](C)NC(=O)[C@H](CCC(=O)O)NC(=O)CNC(=O)CN)C(C)C)C(=O)N[C@H](C(=O)N[C@@H](CCCN=C(N)N)C(=O)N[C@@H](CCC(=O)O)C(=O)N[C@H](C(=O)N[C@@H](CCCCN)C(=O)N[C@@H](CC(=O)O)C(=O)NCC(=O)O)C(C)C)C(C)C [GGEAVQKLVREVKDG]
Vibrio alginolyticus
  MIC: ≥ 78.9 µM
Aeromonas hydrophila
  MIC: ≥ 158 µM
Escherichia coli
  MIC: > 158 µM
Vibrio fluvialis
  MIC: ≥ 78.9 µM
Vibrio parahaemolyticus
  MIC: ≥ 158 µM
Staphylococcus aureus
  MIC: > 158 µM
Streptococcus pyogenes
  MIC: ≥ 158 µM

## CC[C@H](C)[C@H](N)C(=O)N[C@@H](C)C(=O)N[C@@H](CCCN=C(N)N)C(=O)N[C@@H](CCCN=C(N)N)C(=O)N[C@@H](C)C(=O)N[C@@H](CC(C)C)C(=O)N[C@@H](CCCCN)C(=O)N[C@@H](CCCCN)C(=O)N[C@@H](C)C(=O)N[C@@H](CCCCN)C(=O)N[C@@H](CCCN=C(N)N)C(=O)N[C@@H](C)C(=O)N[C@@H](CCCN=C(N)N)C(=O)N[C@@H](Cc1cnc[nH]1)C(=O)N[C@H](C(=O)N[C@H](C(=O)N1CCC[C@H]1C(=O)N[C@@H](CCC(N)=O)C(=O)N[C@@H](CS)C(=O)N[C@@H](CCCCN)C(=O)N[C@@H](CCCCN)C(=O)N[C@@H](Cc1ccccc1)C(=O)NCC(=O)N[C@@H](CCCN=C(N)N)C(=O)N[C@@H](CCCN=C(N)N)C(N)=O)[C@@H](C)CC)[C@@H](C)O [IARRALKKAKRARHTIPQCKKFGRR]
[13]
  MIC: 4 µM (≈ 12 µg/mL)
[14]
  MIC: 8 µM (≈ 23.9 µg/mL)
[15]
  MIC: 1 µM (≈ 2.99 µg/mL)

## CSCC[C@H](NC(=O)[C@H](Cc1ccccc1)NC(=O)CNC(=O)[C@H](Cc1cnc[nH]1)NC(=O)[C@H](CC(C)C)NC(=O)[C@H](CO)NC(=O)CN)C(=O)N[C@@H](Cc1ccc(O)cc1)C(=O)N[C@@H](CCCCN)C(=O)N[C@@H](Cc1ccc(O)cc1)C(=O)N[C@@H](CC(C)C)C(=O)N[C@@H](CCCCN)C(=O)N[C@H](C(=O)N[C@@H](CC(C)C)C(=O)N[C@H](C(=O)N[C@@H](CC(C)C)C(=O)N[C@@H](CCCN=C(N)N)C(=O)N[C@@H](CC(C)C)C(=O)N[C@@H](Cc1ccc(O)cc1)C(N)=O)C(C)C)[C@@H](C)O [GSLHGFMYKYLKTLVLRLY]
Fusarium solani
  MIC: 4 µM (≈ 9.21 µg/mL)
[16]
  MIC: 16 µM (≈ 36.8 µg/mL)
[17]
  MIC: ≥ 32 µM
Trichoderma asperellum
  MIC: 16 µM (≈ 36.8 µg/mL)
[18]
  MIC: 8 µM (≈ 18.4 µg/mL)
[19]
  MIC: ≥ 64 µM
[20]
  MIC: 16 µM (≈ 36.8 µg/mL)
[21]
  MIC: 10.7 µM (≈ 24.6 µg/mL)
Ramulariopsis gossypii
  MIC: 2 µM (≈ 4.6 µg/mL)
Rhizoctonia solani
  MIC: ≥ 32 µM
[22]
  MIC: 6.67 µM (≈ 15.4 µg/mL)
[23]
  MIC: 13.3 µM (≈ 30.7 µg/mL)
Fusarium oxysporum
  MIC: 16 µM (≈ 36.8 µg/mL)
[15]
  MIC: 16 µM (≈ 36.8 µg/mL)
[24]
  MIC: 4 µM (≈ 9.21 µg/mL)
[25]
  MIC: 16 µM (≈ 36.8 µg/mL)

## CC(C)C[C@H](NC(=O)[C@H](CC(C)C)NC(=O)[C@H](CCCCN)NC(=O)[C@H](CCCCN)NC(=O)[C@H](CC(C)C)NC(=O)[C@H](CC(C)C)NC(=O)[C@H](CCCCN)NC(=O)[C@H](C)NC(=O)[C@@H](N)Cc1ccccc1)C(N)=O [FAKLLKKLL]
[26]
  MIC: 21.1 µM (≈ 22.6 µg/mL)
[15]
  MIC: 7.45 µM and 14.9 µM
[27]
  MIC: 5.27 µM (≈ 5.65 µg/mL)
[28]
  MIC: ≥ 59.6 µM

## CC[C@H](C)[C@H](NC(=O)[C@@H]1CCCN1C(=O)CNC(=O)[C@H](CO)NC(=O)[C@H](CO)NC(=O)[C@@H](NC(=O)[C@H](C)NC(=O)[C@H](CCC(N)=O)NC(=O)[C@H](Cc1ccccc1)NC(=O)[C@H](CCCN=C(N)N)NC(=O)[C@H](CC(C)C)NC(=O)[C@H](CC(C)C)NC(=O)[C@H](CC(C)C)NC(=O)[C@H](CCC(=O)O)NC(=O)[C@H](CCC(=O)O)NC(=O)[C@H](CO)NC(=O)[C@H](C)N)[C@@H](C)O)C(=O)N[C@@H](CC(C)C)C(=O)N[C@@H](CCCN=C(N)N)C(=O)N[C@@H](CCC(=O)O)C(=O)N[C@@H](CCC(=O)O)C(=O)N[C@@H](Cc1ccccc1)C(=O)N[C@@H](CCC(=O)O)C(=O)O [ASEELLLRFQATSSGPILREEFE]
[29]
  MIC: ≥ 95.3 µM
[23]
  MIC: > 95.3 µM
[25]
  MIC: > 95.3 µM

## CC(C)C[C@H](NC(=O)[C@H](CCCCN)NC(=O)[C@H](CCCCN)NC(=O)[C@H](CC(C)C)NC(=O)[C@H](Cc1c[nH]c2ccccc12)NC(=O)[C@H](CCCCN)NC(=O)[C@@H](N)CC(C)C)C(N)=O [LKWLKKL]
[30]
  MIC: ≥ 80 µM
[31]
  MIC: ≥ 50 µM
[32]
  MIC: 30 µM (≈ 27.8 µg/mL)
